From PubChem BioAssay (NCI)
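Cells were grown in 96-well plates and exposed to each compound for 48 hours at five concentrations; endpoints were interpolated linearly between bracketing concentrations, or set to the highest concentration if not reached. GI50: concentration for 50% inhibition of growth. TGI: concentration producing complete growth inhibition.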

Key:
Experiment in all cases: NCI anticancer screen, dose series, 48 h
DU-145 prostate = system: DU-145 prostate
SK-MEL-2 melanoma = system: SK-MEL-2 melanoma
786-0 renal = system: 786-0 renal
K-562 leukemia = system: K-562 leukemia
LOX IMVI melanoma = system: LOX IMVI melanoma
NCI-H226 lung = system: NCI-H226 lung
SNB-75 CNS = system: SNB-75 CNS
EKVX NSCLC = system: EKVX NSCLC
SF-295 CNS = system: SF-295 CNS
UACC-257 melanoma = system: UACC-257 melanoma

Compound	GI50 (DU-145 prostate)	TGI (DU-145 prostate)	GI50 (SK-MEL-2 melanoma)	TGI (SK-MEL-2 melanoma)	GI50 (786-0 renal)	TGI (786-0 renal)	GI50 (K-562 leukemia)	TGI (K-562 leukemia)	GI50 (LOX IMVI melanoma)	TGI (LOX IMVI melanoma)	GI50 (NCI-H226 lung)	TGI (NCI-H226 lung)	GI50 (SNB-75 CNS)	TGI (SNB-75 CNS)	GI50 (EKVX NSCLC)	TGI (EKVX NSCLC)	GI50 (SF-295 CNS)	TGI (SF-295 CNS)	GI50 (UACC-257 melanoma)	TGI (UACC-257 melanoma)
COc1ccc2c(c1)C(=O)c1c-2n(CCCN(C)C)c(=O)c2ccccc12	0.249 µM	2.82 µM	1.86 µM	7.18 µM	0.176 µM	2.3 µM	0.287 µM	17.5 µM	0.162 µM	1.01 µM	0.413 µM	2.59 µM	0.648 µM	5.29 µM	0.645 µM	8.45 µM	0.223 µM	1.21 µM	0.929 µM	6.22 µM
O=C(O)c1cc(-c2ccc3cc4c(cc3c2)OCO4)nc2ccccc12	–	> 100 µM	–	> 100 µM	–	> 100 µM	–	> 100 µM	–	> 100 µM	–	> 100 µM	–	> 100 µM	–	83 µM	–	> 100 µM	–	35.4 µM
CNC(=O)c1c(C)oc2cc(Oc3ncnc4cc(OC)c(OC)cc34)ccc12	> 100 µM	> 100 µM	> 100 µM	> 100 µM	> 100 µM	> 100 µM	> 100 µM	> 100 µM	> 100 µM	> 100 µM	2.47 µM	> 100 µM	2.35 µM	> 100 µM	> 100 µM	> 100 µM	> 100 µM	> 100 µM	> 100 µM	> 100 µM
Nc1nc(/C=C\c2ccc([N+](=O)[O-])s2)nc(N2CCN(c3ccccc3)CC2)n1	21.9 µM	51.4 µM	21.2 µM	48.5 µM	24.2 µM	48.7 µM	15.3 µM	49.5 µM	15.7 µM	29.1 µM	15.2 µM	36.4 µM	33.1 µM	60.5 µM	32.2 µM	> 100 µM	20 µM	58.3 µM	20.8 µM	44.2 µM
COc1ccc2ncn(-c3cc(O[C@H](C)c4ccccc4C(F)(F)F)c(C(N)=O)s3)c2c1	0.0784 µM	0.242 µM	0.12 µM	4.82 µM	0.592 µM	5.79 µM	0.109 µM	19.4 µM	0.105 µM	3.56 µM	3.07 µM	12.4 µM	0.917 µM	6.6 µM	1.33 µM	13.1 µM	0.162 µM	6.16 µM	2.55 µM	6.28 µM
